This is an account of results in paper PMC9416111, “Synthesis and Biological Activity of Unsymmetrical Monoterpenylhetaryl Disulfides” (Molecules, 2022).

Structures are written as SMILES.

For the assay, the system named is influenza virus A/Puerto Rico/8/34 (H1N1). Description: Antiviral cell protection assay in MDCK cells. The class given is cell-based.

For the molecule `CC1(C)[C@H]2CC[C@@H](CSSc3ncccc3C(=O)O)[C@@H]1C2` [Compound 2d, 2-((((1S,2R,5S)-6,6-dimethylbicyclo[3.1.1]heptan-2-yl)methyl)disulfanyl)nicotinic acid], the “virus-inhibiting activity, in words” value is “higher than that of Rimantadine”.
